ChEMBL document CHEMBL1133922, “Evolution of anti-HIV drug candidates. Part 2: Diaryltriazine (DATA) analogues” (Bioorg Med Chem Lett, 2001)

Assays:
[1] = tested on: Human immunodeficiency virus 1; assay: Inhibitory activity against 181C strain of HIV-I in MT-4 cell was determined; type: functional, organism-based; details: Human immunodeficiency virus 1, MT4
[2] = tested on: Human immunodeficiency virus 1; assay: Inhibitory activity against LAI strain of HIV-I in MT-4 cell was determined; type: functional, organism-based; details: Human immunodeficiency virus 1, MT4
[3] = tested on: Human immunodeficiency virus 1; assay: Inhibitory activity against 103N strain of HIV-I in MT-4 cell was determined; type: functional, organism-based; details: Human immunodeficiency virus 1, MT4
[4] = tested on: Human immunodeficiency virus 1; assay: Inhibitory activity against 100I strain of HIV-I in MT-4 cell was determined; type: functional, organism-based; details: Human immunodeficiency virus 1, MT4
[5] = tested on: Human immunodeficiency virus 1; assay: Inhibitory activity against 188L strain of HIV-1 in MT-4 cell was determined; type: functional, organism-based; details: Human immunodeficiency virus 1, MT4
MT4 [6] = assay: Inhibitory activity against 103N strain and 181C strain of HIV-I in MT-4 cell was determined; type: functional, cell-based; details: Homo sapiens
MT4 [7] = assay: Inhibitory activity against 100I strain and 103N strain of HIV-I in MT-4 cell was determined; type: functional, cell-based; details: Homo sapiens
MT4 [8] = assay: Inhibitory activity against LAI strain of HIV-I in MT-4 cell was determined; Not determined; type: functional, cell-based; details: Homo sapiens

| Structure (SMILES) | IC50 [1] [nM] | IC50 [2] [nM] | IC50 [3] [nM] | IC50 [4] [nM] | IC50 [5] [nM] | IC50 (MT4 [6]) [nM] | IC50 (MT4 [7]) [nM] | IC50 (MT4 [8]) [nM] |
| --- | --- | --- | --- | --- | --- | --- | --- | --- |
| COc1cccc(OC)c1Oc1nc(N)nc(Nc2ccc(C#N)cc2)n1 | 1560 | 31 | 526 | – | – | – | – | – |
| Cc1cc(N)cc(C)c1Oc1nc(N)nc(Nc2ccc(C#N)cc2)n1 | > 100000 | 7830 | > 100000 | – | – | – | – | – |
| Cc1cc(Br)c(Oc2ncnc(Nc3ccc(C#N)cc3)n2)c(Br)c1 | 40 | 1.3 | 6 | 16 | 398 | – | – | – |
| Cc1cc(C#N)cc(C)c1Oc1ncnc(Nc2ccc(C#N)cc2)n1 | 501 | 4 | 20 | 1000 | 251 | 398 | 3980 | – |
| CC(C)NC(=O)Nc1nc(Cc2c(Cl)cccc2Cl)nc(Nc2ccc(C#N)cc2)n1 | 43800 | 379 | 7550 | 35100 | – | – | – | – |
| Cc1cc(I)cc(C)c1Oc1nc(N)nc(Nc2ccc(C#N)cc2)n1 | 68 | 30 | 10 | 204 | 75 | – | – | – |
| Cc1cc(C)c(Cc2nc(N)nc(Nc3ccc(C#N)cc3)n2)c(C)c1 | 15 | 0.8 | 3 | 82 | 45 | – | – | – |
| N#Cc1ccc(Nc2nc(Cc3c(Cl)cccc3Cl)nc(N3CCOCC3)n2)cc1 | – | 194 | – | – | – | – | – | – |
| N#Cc1ccc(Nc2nc(N)nc(Oc3c(Cl)cc(F)cc3Cl)n2)cc1 | 259 | 7.3 | 65 | 706 | 1020 | – | – | – |
| Cc1cc(C#N)cc(C)c1Nc1ncnc(Nc2ccc(C#N)cc2)n1 | 50 | 1 | 8 | 251 | 50 | 126 | 2510 | – |
| CCCONc1nc(Cc2c(Cl)cccc2Cl)nc(Nc2ccc(C#N)cc2)n1 | – | – | – | – | – | – | – | 100000 |
| CN(C)CCNc1nc(Cc2c(Cl)cccc2Cl)nc(Nc2ccc(C#N)cc2)n1 | 379 | 5 | 21 | 1260 | 297 | – | – | – |
| Cc1cc(Br)cc(C)c1Nc1ncnc(Nc2ccc(C#N)cc2)n1 | 16 | 0.6 | 6 | 79 | 63 | 126 | 3160 | – |
| N#Cc1ccc(Nc2nc(N)nc(Cc3c(Cl)cccc3Cl)n2)cc1 | 200 | 6.3 | 40 | 398 | 316 | – | – | – |
| N#Cc1ccc(Nc2nc(N)nc(Oc3c(F)cc(F)cc3F)n2)cc1 | 3650 | 51 | 87 | 216 | 8950 | – | – | – |
| Cc1cc(C)c(C)c(Cc2nc(N)nc(Nc3ccc(C#N)cc3)n2)c1C | 1190 | 4.6 | 85 | 6700 | 367 | – | – | – |
| C[S+]([O-])c1nc(Cc2c(Cl)cccc2Cl)nc(Nc2ccc(C#N)cc2)n1 (configuration not stated) | 68500 | 1550 | 15500 | – | – | – | – | – |
| CN(C)CCOc1nc(Cc2c(Cl)cccc2Cl)nc(Nc2ccc(C#N)cc2)n1 | 1390 | 5.5 | 37 | 1080 | 315 | – | – | – |
| N#Cc1ccc(Nc2nc(N)nc(Cc3ccccc3)n2)cc1 | > 100000 | 285 | 8470 | 8070 | – | – | – | – |
| CCOC(=O)Nc1nc(Cc2c(Cl)cccc2Cl)nc(Nc2ccc(C#N)cc2)n1 | 1320 | 12 | 548 | 1640 | 1730 | – | – | – |
| CONc1nc(Cc2c(Cl)cccc2Cl)nc(Nc2ccc(C#N)cc2)n1 | 62.8 | 6.2 | 82 | 1380 | 804 | – | – | – |
| CN(C)c1nc(Cc2c(Cl)cccc2Cl)nc(Nc2ccc(C#N)cc2)n1 | 13400 | 166 | 4690 | 32200 | – | – | – | – |
| Cc1cc(C)c(Sc2ncnc(Nc3ccc(C#N)cc3)n2)c(C)c1 | 13 | 2 | 3 | 32 | 20 | – | > 10000 | – |
| CCONc1nc(Cc2c(Cl)cccc2Cl)nc(Nc2ccc(C#N)cc2)n1 | – | – | – | – | – | – | – | 24.6 |
| N#Cc1ccc(Nc2nc(N)nc(Oc3c(Cl)cc(Cl)cc3Cl)n2)cc1 | 62 | 2.4 | 12 | 87 | 502 | – | – | – |
| Cc1cc([N+](=O)[O-])cc(C)c1Oc1nc(N)nc(Nc2ccc(C#N)cc2)n1 | 57 | 2 | 8 | 330 | 123 | – | – | – |
| N#Cc1ccc(Nc2nc(Cc3c(Cl)cccc3Cl)nc(NN)n2)cc1 | 5830 | 610 | 1740 | 5830 | 7320 | – | – | – |

| Structure (SMILES) | IC50 [1] [nM] | IC50 [2] [nM] | IC50 [3] [nM] | IC50 [4] [nM] | IC50 [5] [nM] | IC50 (MT4 [6]) [nM] | IC50 (MT4 [7]) [nM] | IC50 (MT4 [8]) [nM] |
| --- | --- | --- | --- | --- | --- | --- | --- | --- |
| CON(C)c1nc(Cc2c(Cl)cccc2Cl)nc(Nc2ccc(C#N)cc2)n1 | – | 86 | – | – | – | – | – | – |
| CC(=O)Nc1nc(Cc2c(Cl)cccc2Cl)nc(Nc2ccc(C#N)cc2)n1 | 100000 | 16 | 40 | 100000 | 158 | – | – | – |
| N#Cc1ccc(Nc2nc(S)nc(Cc3c(Cl)cccc3Cl)n2)cc1 | 1610 | 94 | 723 | – | – | – | – | – |
| Cc1cc(C)cc(Cc2nc(N)nc(Nc3ccc(C#N)cc3)n2)c1 | 6370 | 91 | 5080 | 77900 | > 100000 | – | – | – |
| CCCNc1nc(Cc2c(Cl)cccc2Cl)nc(Nc2ccc(C#N)cc2)n1 | – | 849 | – | – | – | – | – | – |
| N#Cc1ccc(Nc2nc(N)nc(Oc3c(Cl)cccc3Cl)n2)cc1 | 279 | 3.1 | 82 | 384 | 4570 | – | – | – |
| CSc1nc(Cc2c(Cl)cccc2Cl)nc(Nc2ccc(C#N)cc2)n1 | 2350 | 18 | 336 | – | – | – | – | – |
| N#Cc1ccc(Nc2nc(F)nc(Cc3c(Cl)cccc3Cl)n2)cc1 | 100000 | 5260 | 52600 | – | – | – | – | – |
| N#Cc1ccc(Nc2nc(Cc3c(Cl)cccc3Cl)nc(N=[N+]=[N-])n2)cc1 | 1140 | 14 | 224 | – | – | – | – | – |
| COc1nc(Cc2c(Cl)cccc2Cl)nc(Nc2ccc(C#N)cc2)n1 | 1450 | 12 | 231 | 1150 | 1550 | – | – | – |
| N#Cc1ccc(Nc2nc(Cc3c(Cl)cccc3Cl)nc(NO)n2)cc1 | 38 | 2.4 | 13 | 107 | 26 | – | – | – |
| N#Cc1ccc(Nc2nc(N)nc(Cc3c(Cl)cc(Cl)cc3Cl)n2)cc1 | 6.2 | 1.4 | 16 | 221 | 161 | – | – | – |
| N#Cc1ccc(Nc2nc(N)nc(Cc3ccccc3Cl)n2)cc1 | 2570 | 130 | 400 | 2650 | 7370 | – | – | – |
| N#Cc1ccc(Nc2nc(Cl)nc(Cc3c(Cl)cccc3Cl)n2)cc1 | 10000 | 1080 | 10000 | – | – | – | – | – |
| CNc1nc(Cc2c(Cl)cccc2Cl)nc(Nc2ccc(C#N)cc2)n1 | 440 | 7 | 137 | 1160 | 1020 | – | – | – |
| N#Cc1ccc(Nc2nc(N)nc(Cc3c(Cl)ccc(Cl)c3Cl)n2)cc1 | 286 | 3 | 63 | 416 | 265 | – | – | – |
| N#Cc1ccc(Nc2nc(N)nc(Cc3ccc(Cl)cc3Cl)n2)cc1 | 791 | 14 | 274 | 2100 | 2320 | – | – | – |
| N#Cc1ccc(Nc2nc(N)nc(Oc3c(Br)cc(Br)cc3Br)n2)cc1 | 61 | 5.4 | 17 | 131 | 619 | – | – | – |
| Cc1cc(C)c(Oc2ncnc(Nc3ccc(C#N)cc3)n2)c(C)c1 | 20 | 0.6 | 3 | 20 | 63 | – | > 10000 | – |
| Cc1cc(Br)cc(Cl)c1Oc1nc(N)nc(Nc2ccc(C#N)cc2)n1 | 35 | 2.1 | 6 | 59 | 103 | – | – | – |
| CC(=N)Nc1nc(Cc2c(Cl)cccc2Cl)nc(Nc2ccc(C#N)cc2)n1 | 210 | 2.7 | 40 | 611 | 358 | – | – | – |
| CN(C)/C=N\c1nc(Cc2c(Cl)cccc2Cl)nc(Nc2ccc(C#N)cc2)n1 | 316 | 2.5 | 16 | 631 | 251 | – | – | – |
| Cc1cc(C)c(Sc2nc(N)nc(Nc3ccc(C#N)cc3)n2)c(C)c1 | 19 | 2.9 | 6 | 64 | 36 | – | – | – |
| N#Cc1ccc(Nc2nc(O)nc(Cc3c(Cl)cccc3Cl)n2)cc1 | 2120 | 160 | 607 | – | – | – | – | – |
| Cc1ccc(C)c(Cc2nc(N)nc(Nc3ccc(C#N)cc3)n2)c1 | 1570 | 3.1 | 273 | 5860 | 1030 | – | – | – |
| Cc1cccc(C)c1Cc1nc(N)nc(Nc2ccc(C#N)cc2)n1 | 225 | 1.2 | 42 | 1460 | 105 | – | – | – |
